Reference: US9657351B2, “MRNA-based gene expression for personalizing patient cancer therapy with an MDM2 antagonist” (Hoffmann-La Roche Inc., priority 2013, dated 2017)

Legend:
[1] = system: 4-gene mRNA signature score (MDM2, XPC, BBC3, CDKN2A); test: NO21279 4-gene mRNA signature score on treatment; type: in vivo, human
Description: MDM2 mRNA concentrations were assessed at Roche Molecular Systems by quantitative real-time PCR with 50 ng total RNA from MACs isolated leukemia cells from blood. TaqMan (Invitrogen, Carlsbad, Calif., USA) probes were designed to detect MDM2 mRNA and the reference mRNA, beta-glucuronidase, simultaneously using two different fluorescent reporters. Gene expression profiles were generated using Affymetrix U133 Plus 2.0 microarrays. Probset ID's for the each of the four genes on said U133 Plus 2.0 microarray are: 209375_s_at (for XPC); 205386_s_at and 211832_s_at (MDM2); 211692_s_at (BBC3); 207039_at and 211156_at (CDKN2A). The “mRNA expression level” for one of the 4 genes according to the present invention is the accumulation of all counts falling into the range of exons of a gene (e.g. MDM2). […] The predictive patient signature score according to the present invention is then calculated using the following equation: patient signature score=GMDM2+GXPC+GBBC3−GCDKN2A. G in the formula stands for log 2 transformed mRNA expression levels as obtained from patient samples, for example blood leukemia or bone marrow biopsy samples. For example, for the patient data reported in Table 9 (Example 5), G is log 2 of the mRNA probeset expression of the relevant gene as measured with Affymetrix U133 Plus 2.0 microarrays.
Risk scores are calculated for patients based on their mRNA expression values of the 4 genes at baseline prior to treatment. To ensure a rigorous and an unbiased validation, the compute of the coefficients in the test cohort is not done. However, due to the platform difference and the biological differences between patients and cell lines, in-vitro coefficients for the patient level classifier is not applied.

[2] = system: Ki-67-positive tumor cells; conditions: NP22890; as previously reported; cited from earlier work

SMILES: CCOc1cc(C(C)(C)C)ccc1C1=N[C@@](C)(c2ccc(Cl)cc2)[C@@](C)(c2ccc(Cl)cc2)N1C(=O)N1CCN(CCCS(C)(=O)=O)CC1 [COMPOUND A]
- median signature score over baseline ([1]; C1D2, CR patients, IQR 1.13-1.15): 1.15 times
- median signature score over baseline ([1]; C1D2, HI patients, IQR 1.04-1.10): 1.08 times
- median signature score over baseline ([1]; C1D2, MLFS patients, IQR 1.14-1.19): 1.17 times
- median signature score over baseline ([1]; C1D2, PD patients, IQR 1.05-1.16): 1.11 times
- median signature score over baseline ([1]; C1D10, CR patients, IQR 1.22-1.24): 1.23 times
- median signature score over baseline ([1]; C1D10, HI patients, IQR 1.23-1.30): 1.25 times
- overall signature score over baseline ([1]; C1D10, IQR 1.88-4.23): 3.05 times
- median signature score over baseline ([1]; C1D10, MLFS patients, IQR 1.23-1.31): 1.26 times
- median signature score over baseline ([1]; C1D10, PD patients, IQR 1.08-1.21): 1.14 times
- Ki-67-positive tumor cells change from baseline [2]: decreased
